Test results from patent US20130184316A1, “METHODS FOR DIAGNOSING AND TREATING CONCUSSIVE DISORDERS” (priority 2010, published 2013).

Columns and labels:
[1] = tested on: subject with PCS; experiment: Cancellation test, Wechsler Adult Intelligence Scale 4th edition; format: in vivo, human
Procedure: A single subject, prospective, double blind, placebo controlled trial of 4AP was then conducted in this individual. IRB approvals were obtained from all participating institutions and Subject gave written informed consent for all parts of the study. After a 4-week medication washout period, the Subject was randomly assigned a week's course of placebo, followed by a weeklong medication washout period, followed by another week on 4-AP (10 mg twice daily). Based on the medication half-life, a one week washout period was presumed to be sufficient. Subject and assessors were blinded to treatment allocation.
Measurements conducted at identical times at baseline and on each of the subsequent 3 weeks of the study included: • Balance and mobility assessed by Hi-Mat test (Arch. Phys. Med. Rehabil. 2006, 87(3), 437-442; hereby incorporated by reference in its entirety). • Subjective symptom assessment using the Rivermead Post-Concussion Questionnaire (Clin. Rehabil. 2005, 19(8), 878-887; hereby incorporated by reference in its entirety). • Neuropsychological assessment, consisting of the digit span and cancellation tests from the Wechsler Adult Intelligence Scale, 4th edition (Coalson, D. L., Engi-Raiford, S. Wechsler Adult Intelligence Scale, 4th Ed., in Technical and Interpretive Manual, 4th Ed., San Antonio: Pearson (2008); hereby incorporated by reference in its entirety), the California Verbal Learning Test II (CVLT) (Delis, D. C., Kramer, J. H., Kaplan, E., Ober, B. A. in CVLT-II Manual, San Antonio: The Psychological Corporation (2000); hereby incorporated by reference in its entirety), the Verbal Fluency Test (Connors Continuous Performance Test Computer II Program Version 5 Users Manual, Toronto: Multi-Health Systems, Inc. (2002); hereby incorporated by reference in its entirety), and the Connors Continuous Performance Test (J. Nervous Ment. Dis. 1985, 173(6), 353-357; hereby incorporated by reference in its entirety). • Videonystagmography (VNG) and rotary chair (RC) vestibular testing […]

[2] = tested on: subject with PCS; experiment: PCS Symptom Cluster Scale, weighted point system; format: in vivo, human; set-up: key to Raw score: Vertigo / Raw score: Persistence or perseveration of proprioceptive sensations (e.g., feeling motion after coming to rest) / Raw score: Diplopia / Raw score: Impairment of gait: 0 never, 1 sometimes, 2 often, 3 always/nearly always present; key to Weighted Score: Vertigo / Weighted Score: Insomnia / Weighted Score: Difficulty in standing for more than 5 minutes: raw frequency score (0-3) multiplied by weight factor; settings: after therapy with 4-AP
Text: In one embodiment, a point system is presented in which symptoms from each cluster are further assigned a point value. The evaluation should rate the frequency of each symptom over the span of about one week prior to the assessment, according to the following scale: 0—Never present, 1—Sometimes present, 2—Often present, 3—Always or Nearly always present. In this context, occurrence of a symptom from about 1 to 5 times per week would classify as sometimes present, occurrence from about 5 to about 10 times per week would classify as often present, and occurrence about 10 or more times per week would classify as always or nearly always present. The rating number for each item should be recorded as the raw score. Each raw score should then be multiplied by the weight factor to obtain the weighted score.
To achieve this goal, a point system was applied to discrete symptoms within symptom Clusters to specifically define a class of PCS patient that will be likely to benefit from treatment from 4-AP. According to the weighted point system, symptoms from each cluster are further assigned a point value. The frequency of each symptom over the span of about one week prior to the assessment was rated according to the following scale: 0—Never present, 1—Sometimes present, 2—Often present, 3—Always or Nearly always present. The rating number for each item was recorded as the raw score, and the raw score was then multiplied by the weight factor to obtain the weighted score.

[3] = tested on: multiple sclerosis patients; settings: orally administered, over a period of days, literature; cited from earlier work
[4] = Cluster A, raw score x weight 1, prior to therapy 3
[5] = Cluster A, raw score x weight 3, prior to therapy 6
[6] = Cluster B, raw score x weight 4, prior to therapy 8
[7] = Cluster C, raw score x weight 2, prior to therapy 2
[8] = Cluster C, raw score x weight 3, prior to therapy 9

## Nc1ccncc1 [4-AP, 4-Amino pyridine]
[1]; session 4 Active: blinded, one week on 4-AP 10 mg twice daily, baseline 37, placebo 37, washout 37
  Cancellation task percentile: 37 percentile
[1]; session 5 1st Open: open-label 4AP 10 mg twice daily, 5 weeks after formal study
  Cancellation task percentile: 75 percentile
[1]; session 6 2nd Open: open-label 4AP 10 mg twice daily, 9 weeks after formal study
  Cancellation task percentile: 84 percentile
[2]; Cluster A, prior to therapy 0
  Raw score: Difficulty in standing for more than 5 minutes: 0
[2]; Cluster A, prior to therapy 1
  Raw score: Difficulty moving body position (e.g., from chair to bed or toilet): 0
[2]; Cluster A, prior to therapy 2
  Raw score: Difficulty maintaining balance while looking over shoulder: 0
  Raw score: Difficulty rising unaided from a sitting position or from sitting on the floor: 0
  Raw score: Impairment of gait: 0
  Raw score: Inability to maintain stability while standing with eyes closed or with feet together: 1 (Sometimes present)
[2]; Cluster A, prior to therapy 3
  Raw score: Difficulty conversing while walking: 1 (Sometimes present)
  Raw score: Difficulty tossing objects from hand to hand while walking: 1 (Sometimes present)
  Raw score: Inability to maintain heel-to-toe gait: 1 (Sometimes present)
[2]; Cluster A, raw score x weight 1, prior to therapy 1
  Weighted Score: Difficulty moving body position (e.g., from chair to bed or toilet): 0
[2]; Cluster A, raw score x weight 1, prior to therapy 2
  Weighted Score: Difficulty rising unaided from a sitting position or from sitting on the floor: 0
[2]; [4]
  Weighted Score: Difficulty tossing objects from hand to hand while walking: 1
  Weighted Score: Inability to maintain heel-to-toe gait: 1
[2]; Cluster A, raw score x weight 2, prior to therapy 0
  Weighted Score: Difficulty in standing for more than 5 minutes: 0
[2]; Cluster A, raw score x weight 2, prior to therapy 4
  Weighted Score: Difficulty maintaining balance while looking over shoulder: 0
[2]; [5]
  Weighted Score: Impairment of gait: 0
  Weighted Score: Inability to maintain stability while standing with eyes closed or with feet together: 3
[2]; Cluster A, raw score x weight 3, prior to therapy 9
  Weighted Score: Difficulty conversing while walking: 3
[2]; Cluster B, prior to therapy 2
  Raw score: Oscillopsia (perception of stationary objects moving): 0
  Raw score: Persistence or perseveration of proprioceptive sensations (e.g., feeling motion after coming to rest): 0
  Raw score: Persistent sensation of walking on soft or moving surface: 0
  Raw score: Vertigo: 0
  Raw score: Vestibular seizures: 0
[2]; Cluster B, prior to therapy 3
  Raw score: Persistent sensation of being off-balance or tilted: 1 (Sometimes present)
[2]; Cluster B, raw score x weight 2, prior to therapy 6
  Weighted Score: Vertigo: 0
[2]; Cluster B, raw score x weight 3, prior to therapy 6
  Weighted Score: Persistent sensation of walking on soft or moving surface: 0
[2]; [6]
  Weighted Score: Oscillopsia (perception of stationary objects moving): 0
  Weighted Score: Persistence or perseveration of proprioceptive sensations (e.g., feeling motion after coming to rest): 0
[2]; Cluster B, raw score x weight 4, prior to therapy 12
  Weighted Score: Persistent sensation of being off-balance or tilted: 4
[2]; Cluster B, raw score x weight 5, prior to therapy 10
  Weighted Score: Vestibular seizures: 0
[2]; Cluster C, prior to therapy 1
  Raw score: Apathy, listlessness, blunting of affect: 0
  Raw score: Emotional lability or exaggerated emotions: 0
  Raw score: Persistent or frequent irritability: 0
[2]; Cluster C, prior to therapy 2
  Raw score: Persisting difficulty with registration or retention of newly presented information in any modality: 1 (Sometimes present)
[2]; Cluster C, prior to therapy 3
  Raw score: Inability to perform two simple tasks concurrently (multitasking): 1 (Sometimes present)
  Raw score: Inability to tolerate distraction (e.g., inability to complete simple task or resume conversation after interruption): 1 (Sometimes present)
  Raw score: Intolerance of noise, light, or commotion: 1 (Sometimes present)
  Raw score: Slowed speed of mental processing or responding: 0
[2]; [7]
  Weighted Score: Apathy, listlessness, blunting of affect: 0
  Weighted Score: Emotional lability or exaggerated emotions: 0
  Weighted Score: Persistent or frequent irritability: 0
[2]; Cluster C, raw score x weight 2, prior to therapy 4
  Weighted Score: Persisting difficulty with registration or retention of newly presented information in any modality: 2
[2]; Cluster C, raw score x weight 2, prior to therapy 6
  Weighted Score: Slowed speed of mental processing or responding: 0
[2]; [8]
  Weighted Score: Inability to perform two simple tasks concurrently (multitasking): 3
  Weighted Score: Inability to tolerate distraction (e.g., inability to complete simple task or resume conversation after interruption): 3
[2]; Cluster C, raw score x weight 4, prior to therapy 12
  Weighted Score: Intolerance of noise, light, or commotion: 4
[2]; Cluster D, prior to therapy 0
  Raw score: Diplopia: 0
[2]; Cluster D, prior to therapy 1
  Raw score: Headache: 2 (Often present)
  Raw score: Nystagmus: 0
[2]; Cluster D, prior to therapy 2
  Raw score: Anergy, chronic fatigue, hypersomnia: 0
  Raw score: Insomnia: 2 (Often present)
[2]; Cluster D, prior to therapy 3
  Raw score: Difficulty in accommodation or focus: 1 (Sometimes present)
  Raw score: Impairment of tracking an object in motion: 0
[2]; Cluster D, raw score x weight 1, prior to therapy 2
  Weighted Score: Insomnia: 2
[2]; Cluster D, raw score x weight 2, prior to therapy 0
  Weighted Score: Diplopia: 0
[2]; Cluster D, raw score x weight 2, prior to therapy 2
  Weighted Score: Headache: 4
[2]; Cluster D, raw score x weight 3, prior to therapy 6
  Weighted Score: Anergy, chronic fatigue, hypersomnia: 0
[2]; Cluster D, raw score x weight 3, prior to therapy 9
  Weighted Score: Difficulty in accommodation or focus: 3
[2]; Cluster D, raw score x weight 4, prior to therapy 4
  Weighted Score: Nystagmus: 0
[2]; Cluster D, raw score x weight 4, prior to therapy 12
  Weighted Score: Impairment of tracking an object in motion: 0
[2]; prior to therapy 165
  Total weighted score of symptoms: 33 points
[3]
  Restoring nerve impulse transmission: mild to moderate improvements
